Tests used:
DU-145 = assay: Inhibition of cells growth by colorimetric assay (SRB); conditions: Homo sapiens, DU-145, 48 h; for GI50: read-out: DU145 GI50; for CC50: read-out: DU145 LC50; for IC (TGI): read-out: DU145 TGI
In short: (§1)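 Colorimetric SRB read (490 nm) on triplicate wells after 48 h at 37 °C, 5% CO2. Dose range 10 to 10^−8 μg/ml; 5×10^3 cells/well pre-attached 18 h.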

MDA-MB-231 = assay: as above
In short: as §1

OVCAR-3 = assay: as above
In short: as §1

SW620 = assay: as above
In short: as §1

SK-MEL-28 = assay: as above; conditions: Homo sapiens, SK-MEL-28, 48 h; for GI50: read-out: MEL-28 GI50; for CC50: read-out: MEL-28 LC50; for IC (TGI): read-out: MEL-28 TGI
In short: as §1

MCF-7 = assay: as above
In short: as §1

A-498 = assay: as above
In short: as §1

HT-29 = assay: cells; conditions: Homo sapiens, HT-29, 48 h; for GI50: read-out: HT29 GI50; for CC50: read-out: HT29 LC50; for IC (TGI): read-out: HT29 TGI
In short: as §1

A-549 = assay: cells; conditions: Homo sapiens, A549, 48 h; for GI50: read-out: A549 GI50; for CC50: read-out: A549 LC50; for IC (TGI): read-out: A549 TGI
In short: as §1

K-562 = assay: Inhibition of cells growth by colorimetric assay (SRB); conditions: Homo sapiens, K562, 48 h
In short: as §1

HMEC1 = assay: as above; conditions: for H-MEC-1 TGI: SRB, 48 hours exposure; for GI50: Homo sapiens, HMEC-1, 48 h, read-out: H-MEC-1 GI50
In short: as §1

[1] = as above; conditions: human
In short: as §1

LoVo-Dox = assay: as above; conditions: Homo sapiens, 48 h
In short: as §1

SK-BR-3 = assay: as above; conditions: Homo sapiens, SK-BR-3, 48 h
In short: as §1

PANC-1 = assay: as above; conditions: Homo sapiens, PANC-1, 48 h
In short: as §1

LNCaP = assay: as above; conditions: Homo sapiens, LNCaP, 48 h
In short: as §1

IGROV-1 = assay: as above; conditions: Homo sapiens, IGROV-1, 48 h
In short: as §1

IGROV-ET = assay: as above; conditions: Homo sapiens, 48 h
In short: as §1

SK-OV-3 = assay: as above
In short: as §1

LoVo = assay: cells; conditions: Homo sapiens, LoVo, 48 h
In short: as §1

P-388 cells = assay: Inhibition of cell growth by counting cells; assay type: cell-based; conditions: Mus musculus, 72 h; p388 cells, three days of incubation
From the text: (§2) The finality of these assays is to interrupt the growth of a “in vitro” tumor cell culture by means a continued exhibition of the cells to the sample to be testing.
(§3) This form of the assay employs 24 well multidishes of 16 mm diameter (Bergeron, 1984; Schroeder, 1981). The tumor cell lines employed are: P-388 (ATCC CCL 46), suspension culture of a lymphoid neoplasm from a DBA/2 mouse; A-549 (ATCC CCL 185), monolayer culture of a human lung carcinoma; HT-29 (ATCC HTB-38), monolayer culture of a human colon carcinoma; MEL-28 (ATCC HTB-72), monolayer culture of a human melanoma and DU-145 (ATCC HTB-81), monolayer culture of a human prostate carcinoma.
(§4) Cells were maintained, in logarithmic phase of growth in Eagle's Minimum Essential Medium, with Earle's Balanced Salts, with non-essential amino acids, with 2.0 mM L-Glutamine, without sodium bicarbonate (EMEM/neaa), supplemented with 10% Fetal Calf Serum (FCS), 10^−2 M. sodium bicarbonate and 0.1 U/1 penicillin G+0.1 g/l streptomycin sulfate.
P-388 cells were seeded into 16 mm diameter wells at 1×10^4 cells per well in 1 ml aliquots of EMEM 5% FCS containing different concentrations of the sample to be tested. […]
For quantifying the activity, after the incubation time, cells are trypsinized and counted in a Coulter Counter ZM. […]

MEL-28 cells = assay: Inhibition of cell growth by counting cells; assay type: cell-based; conditions: Homo sapiens, SK-MEL-28, 72 h; mel28 cells, three days of incubation
From the text: as §2, §3, §4
(§5) A-549, HT-29, MEL-28 and DU-145 cells were seeded into 16 mm diameter wells at 1×10^4 cells per well in 1 ml aliquots of EMEM 5% FCS containing different concentrations of the sample to be tested. A separate set of cultures without drug was seeded as control of growth, to ensure that cells remained in exponential phase of growth. All determinations are caring out in duplicate. After three days of incubation at 37° C., 5% CO2 in a 98% humid atmosphere cells were stained with 0.1% crystal violet. An approximately IC50 was determined by comparing the growth in wells with drug to the growth in wells control.
(§6) For quantifying the activity, after the incubation time, cells are trypsinized and counted in a Coulter Counter ZM. All counts (net cells per well), represent the average of duplicate wells. % G, percent of growth relative to cultures without drug.
(§7) For this technique, compounds which show IC50 values smaller than 1 μg/ml are selected to continue with further studies.

HT-29 cells = assay: Inhibition of cell growth by counting cells; assay type: cell-based; conditions: Homo sapiens, HT-29, 72 h; ht29 cells, three days of incubation
From the text: as §2, §3, §4, §5, §6, §7

A-549 cells = assay: Inhibition of cell growth by counting cells; assay type: cell-based; conditions: Homo sapiens, 72 h; a549 cells, three days of incubation
From the text: as §2, §3, §4, §5, §6, §7

DU-145 cells = assay: Inhibition of cell growth by counting cells; assay type: cell-based; conditions: Homo sapiens, DU-145, 72 h; du145 cells, three days of incubation
From the text: as §2, §3, §4, §5, §6, §7

## COc1c(C)cc2c(c1O)C1C3[C@@H]4SCC(=O)C(=O)OC[C@@H](c5c6c(c(C)c(OC(C)=O)c54)OCO6)N3[C@@H](O)[C@H](C2)N1C (stereo partly drawn) [Et-594]
DU-145
  GI50: 32.7 nM
  CC50: 163 nM
  IC (TGI): 81.7 nM
MDA-MB-231; Homo sapiens, MDA-MB-231, 48 h, read-out: MB231 GI50
  GI50: 32.7 nM
MDA-MB-231; Homo sapiens, MDA-MB-231, 48 h, read-out: MB231 LC50
  CC50: 1630 nM
MDA-MB-231; MB231, SRB, 48 hours exposure
  MB231 TGI: 1.14E−07 Molar
OVCAR-3; Homo sapiens, OVCAR-3, 48 h, read-out: OVCAR GI50
  GI50: 32.7 nM
OVCAR-3; Homo sapiens, OVCAR-3, 48 h, read-out: OVCAR LC50
  CC50: 16300 nM
OVCAR-3; OVCAR, SRB, 48 hours exposure
  OVCAR TGI: 1.14E−07 Molar
SW620; Homo sapiens, SW-620, 48 h, read-out: SW-620 GI50
  GI50: 32.7 nM
SW620; Homo sapiens, SW-620, 48 h, read-out: SW-620 LC50
  CC50: 3270 nM
SW620; SW-620, SRB, 48 hours exposure
  SW-620 TGI: 9.80E−08 Molar
SK-MEL-28
  GI50: 32.7 nM
  CC50: 131 nM
  IC (TGI): 65.4 nM
MCF-7; Homo sapiens, MCF7, 48 h, read-out: MCF GI50
  GI50: 32.7 nM
MCF-7; Homo sapiens, MCF7, 48 h, read-out: MCF LC50
  CC50: 3270 nM
MCF-7; MCF, SRB, 48 hours exposure
  MCF TGI: 9.80E−08 Molar
A-498; A498, SRB, 48 hours exposure
  A498 TGI: 3.27E−07 Molar
A-498; Homo sapiens, A498, 48 h, read-out: A498 GI50
  GI50: 81.7 nM
A-498; Homo sapiens, A498, 48 h, read-out: A498 LC50
  CC50: 11400 nM
HT-29
  GI50: 49 nM
  CC50: 1630 nM
  IC (TGI): 98 nM
A-549
  GI50: 49 nM
  CC50: 654 nM
  IC (TGI): 131 nM

## COc1cc2c(cc1O)CCN[C@]21CS[C@@H]2c3c(OC(C)=O)c(C)c4c(c3[C@H](COC1=O)N1C[C@@H]3Cc5cc(C)c(OC)c(O)c5C(C21)N3C)OCO4 (stereo partly drawn) [Et-745]
K-562; read-out: K562 GI50
  GI50: 884 nM
K-562; read-out: K562 LC50
  CC50: 13400 nM
K-562; read-out: K562 TGI
  IC (TGI): 3900 nM
DU-145
  GI50: 488 nM
  CC50: 13400 nM
  IC (TGI): 2670 nM
HMEC1
  H-MEC-1 TGI: 3.67E−06 Molar
  GI50: 634 nM
[1]
  CC50 at 48 h: 13400 nM
LoVo-Dox; read-out: LOVO-DOX GI50
  GI50: 6250 nM
LoVo-Dox; read-out: LOVO-DOX LC50
  CC50: 13400 nM
LoVo-Dox; read-out: LOVO-DOX TGI
  IC (TGI): 13400 nM
SK-BR-3; read-out: SK-BR3 GI50
  GI50: 629 nM
SK-BR-3; read-out: SK-BR3 LC50
  CC50: 13400 nM
SK-BR-3; read-out: SK-BR3 TGI
  IC (TGI): 3150 nM
PANC-1; read-out: PANC-1 GI50
  GI50: 1320 nM
PANC-1; read-out: PANC-1 LC50
  CC50: 13400 nM
PANC-1; read-out: PANC-1 TGI
  IC (TGI): 9220 nM
LNCaP; read-out: LNCAP GI50
  GI50: 652 nM
LNCaP; read-out: LNCAP LC50
  CC50: 9810 nM
LNCaP; read-out: LNCAP TGI
  IC (TGI): 2390 nM
IGROV-1; read-out: IGROV GI50
  GI50: 774 nM
IGROV-1; read-out: IGROV LC50
  CC50: 13400 nM
IGROV-1; read-out: IGROV TGI
  IC (TGI): 3260 nM
SK-MEL-28
  GI50: 602 nM
  CC50: 8620 nM
  IC (TGI): 2210 nM
IGROV-ET; read-out: IGROV-ET GI50
  GI50: 3700 nM
IGROV-ET; read-out: IGROV-ET LC50
  CC50: 13400 nM
IGROV-ET; read-out: IGROV-ET TGI
  IC (TGI): 8450 nM
SK-OV-3; Homo sapiens, SK-OV-3, 48 h, read-out: SK-OV3 GI50
  GI50: 1320 nM
SK-OV-3; Homo sapiens, SK-OV-3, 48 h, read-out: SK-OV3 LC50
  CC50: 13400 nM
SK-OV-3; SK-OV3, SRB, 48 hours exposure
  SK-OV3 TGI: 5.48E−06 Molar
HT-29
  GI50: 522 nM
  CC50: 13400 nM
  IC (TGI): 2650 nM
A-549
  GI50: 743 nM
  CC50: 13400 nM
  IC (TGI): 4770 nM
LoVo; read-out: LOVO GI50
  GI50: 5550 nM
LoVo; read-out: LOVO LC50
  CC50: 13400 nM
LoVo; read-out: LOVO TGI
  IC (TGI): 13400 nM

## COc1c(C)cc2c(c1O)[C@@H]1C3[C@@H]4SCC(=O)C(=O)OC[C@@H](c5c6c(c(C)c(OC(C)=O)c54)OCO6)N3[C@@H](C#N)[C@H](C2)N1C (stereo partly drawn) [compound 16]
P-388 cells
  IC50: 16.3 nM
MEL-28 cells
  IC50: 16.3 nM
HT-29 cells
  IC50: 16.3 nM
A-549 cells
  IC50: 16.3 nM

## COc1c(C)cc2c(c1O)[C@@H]1C3[C@@H]4SCC(NC(C)=O)C(=O)OC[C@@H](c5c6c(c(C)c(OC(C)=O)c54)OCO6)N3[C@@H](C#N)[C@H](C2)N1C (stereo partly drawn) [compound 19]
P-388 cells
  IC50: 0.753 nM
DU-145 cells
  IC50: 0.753 nM
MEL-28 cells
  IC50: 0.753 nM
HT-29 cells
  IC50: 0.753 nM
A-549 cells
  IC50: 0.753 nM

## COc1c(C)cc2c(c1O)[C@@H]1C3[C@@H]4SCC(=O)C(=O)NC[C@@H](c5c6c(c(C)c(OC(C)=O)c54)OCO6)N3[C@@H](C#N)[C@H](C2)N1C (stereo partly drawn) [compound 75]
HMEC1
  H-MEC-1 TGI: 1.64E−06 Molar
  GI50: 279 nM
[1]
  CC50 at 48 h: 16100 nM
HT-29
  GI50: 330 nM
  CC50: 16100 nM
  IC (TGI): 933 nM
A-549
  GI50: 889 nM
  CC50: 12700 nM
  IC (TGI): 4010 nM

— patent publication US7767659B2, “Synthesis of naturally occurring ecteinascidins and related compounds” (Pharma Mar, S.A., priority 2002, dated 2010)
